We go through twelve molecules from patent US11912701B2, “Protein kinase inhibitors for promoting liver regeneration or reducing or preventing hepatocyte death” (HEPAREGENIX GMBH, priority 2018, dated 2024).

Holding throughout (format): biochemical
The target of experiment [1] is T1, MKK4 (Homo sapiens, UniProt P45985).
T1 construct: purchased ProQinase GmbH, Freiburg, Germany (33PanQinase Assay Service)
T1 sequence (P45985 1-399): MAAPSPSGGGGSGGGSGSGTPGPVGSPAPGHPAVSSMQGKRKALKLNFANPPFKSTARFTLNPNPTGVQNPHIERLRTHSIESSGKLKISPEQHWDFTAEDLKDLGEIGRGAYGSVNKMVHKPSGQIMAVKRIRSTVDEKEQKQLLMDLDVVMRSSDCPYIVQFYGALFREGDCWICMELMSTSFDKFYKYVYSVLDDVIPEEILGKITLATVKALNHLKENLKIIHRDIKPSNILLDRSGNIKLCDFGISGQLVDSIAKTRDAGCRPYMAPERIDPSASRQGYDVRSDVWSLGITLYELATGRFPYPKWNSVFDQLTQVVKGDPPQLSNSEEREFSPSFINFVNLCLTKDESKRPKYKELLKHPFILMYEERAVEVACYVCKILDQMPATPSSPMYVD
Put plainly: 33PanQinase enzyme assay, MKK4. Conditions: assay 'IC50'; read-out: Potency MKK4 (IC50). On the procedure:
(§1) The kinase activities of the compounds of the invention were measured using the 33PanQinase® Assay Service provided by ProQinase GmbH, Freiburg, Germany. Details of the assay conditions are disclosed on the website of ProQinase (https://www.proginase.com/products-services-biochemical-assay-services/kinase-assays). In brief, all kinase assays were performed in 96-well FlashPlates™ from PerkinElmer (Boston, MA, USA) in a 50 μl reaction volume. The reaction cocktail was pipetted in four steps in the following order: • 20 μl of assay buffer (standard buffer) • 5 μl of ATP solution (in H2O) • 5 μl of test compound (in 10% DMSO) • 20 μl enzyme/subtrate mix
(§2) The reaction cocktails were incubated at 30° C. for 60 minutes. The reaction is stopped with 50 μl of 2% (v/v) H3PO4, plates were aspirated and washed two times with 200 μl 0.9% (w/v) NaCl. Incorporation of ^33Pi was determined with a microplate scintillation counter (Microbeta, Wallac).
(§3) All assays were performed with a BeckmanCoulter/SAGIAN™ Core System.
(§4) In case of single concentration assays, the potency of the test compound is expressed as % residual activity. […] The fitting method used was a least-squares fit.
Inhibition potency against MKK4 is categorized as follows:
Assay at single concentration (100 nM):

In experiment [2] the target is JNK1 (Homo sapiens, UniProt P45983). Put plainly: 33PanQinase enzyme assay, JNK1. Conditions: ratio IC50(JNK1)/IC50(MKK4). Also on record: purchased ProQinase GmbH, Freiburg, Germany (33PanQinase Assay Service). On the procedure: as §1, §2, §3, §4
(§5) Selectivity of test compounds against BRaf, JNK1 and MKK7, altogether denominated as off-targets was calculated by the ratio of IC50 (off-target)/IC50 (MKK4) and categorized as follows: […]

For experiment [3], the target named is T2, BRaf (Homo sapiens, UniProt P15056).
T2 construct: purchased ProQinase GmbH, Freiburg, Germany (33PanQinase Assay Service)
In words: 33PanQinase enzyme assay, BRaf. Conditions: ratio IC50(BRaf)/IC50(MKK4). On the procedure:
as §1, §2, §3, §4, §5

The target of experiment [4] is T3, MKK7 (Homo sapiens, UniProt O14733).
T3 sequence (O14733 1-419): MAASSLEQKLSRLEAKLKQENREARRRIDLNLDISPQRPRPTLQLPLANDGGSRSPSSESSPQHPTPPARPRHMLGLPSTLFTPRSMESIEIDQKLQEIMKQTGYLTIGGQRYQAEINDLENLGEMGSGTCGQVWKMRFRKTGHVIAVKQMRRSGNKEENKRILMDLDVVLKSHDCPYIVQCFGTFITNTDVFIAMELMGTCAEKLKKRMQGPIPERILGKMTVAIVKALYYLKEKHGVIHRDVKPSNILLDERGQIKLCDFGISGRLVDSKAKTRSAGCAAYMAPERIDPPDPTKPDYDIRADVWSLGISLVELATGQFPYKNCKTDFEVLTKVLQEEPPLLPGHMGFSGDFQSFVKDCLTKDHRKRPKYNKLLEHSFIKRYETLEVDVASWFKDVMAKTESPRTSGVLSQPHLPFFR
In words: 33PanQinase enzyme assay, MKK7. Also on record: purchased ProQinase GmbH, Freiburg, Germany (33PanQinase Assay Service). Conditions: ratio IC50(MKK7)/IC50(MKK4). On the procedure:
as §1, §2, §3, §4, §5

T2 sequence (P15056 whole entry, species assumed): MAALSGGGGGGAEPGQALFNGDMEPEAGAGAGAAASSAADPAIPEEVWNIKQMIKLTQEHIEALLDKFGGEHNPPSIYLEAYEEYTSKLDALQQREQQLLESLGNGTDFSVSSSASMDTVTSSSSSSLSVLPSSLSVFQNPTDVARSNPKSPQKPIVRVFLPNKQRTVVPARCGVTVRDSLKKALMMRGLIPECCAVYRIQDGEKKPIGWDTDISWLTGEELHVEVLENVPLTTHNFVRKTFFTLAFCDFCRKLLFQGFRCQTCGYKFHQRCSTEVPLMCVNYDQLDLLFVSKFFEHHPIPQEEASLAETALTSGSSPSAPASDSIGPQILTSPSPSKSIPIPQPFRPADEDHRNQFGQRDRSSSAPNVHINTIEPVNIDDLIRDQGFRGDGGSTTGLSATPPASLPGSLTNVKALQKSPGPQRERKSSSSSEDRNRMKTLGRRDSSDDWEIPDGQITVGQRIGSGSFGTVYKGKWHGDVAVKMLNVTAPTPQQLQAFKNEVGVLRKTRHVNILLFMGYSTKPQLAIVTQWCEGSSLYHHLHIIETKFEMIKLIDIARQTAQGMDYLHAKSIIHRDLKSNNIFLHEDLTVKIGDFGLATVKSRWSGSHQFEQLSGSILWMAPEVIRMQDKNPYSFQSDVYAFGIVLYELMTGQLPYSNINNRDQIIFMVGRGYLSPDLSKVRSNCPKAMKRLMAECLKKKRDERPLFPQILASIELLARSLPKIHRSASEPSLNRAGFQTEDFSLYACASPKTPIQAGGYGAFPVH
JNK1, sequence (P45983 whole entry): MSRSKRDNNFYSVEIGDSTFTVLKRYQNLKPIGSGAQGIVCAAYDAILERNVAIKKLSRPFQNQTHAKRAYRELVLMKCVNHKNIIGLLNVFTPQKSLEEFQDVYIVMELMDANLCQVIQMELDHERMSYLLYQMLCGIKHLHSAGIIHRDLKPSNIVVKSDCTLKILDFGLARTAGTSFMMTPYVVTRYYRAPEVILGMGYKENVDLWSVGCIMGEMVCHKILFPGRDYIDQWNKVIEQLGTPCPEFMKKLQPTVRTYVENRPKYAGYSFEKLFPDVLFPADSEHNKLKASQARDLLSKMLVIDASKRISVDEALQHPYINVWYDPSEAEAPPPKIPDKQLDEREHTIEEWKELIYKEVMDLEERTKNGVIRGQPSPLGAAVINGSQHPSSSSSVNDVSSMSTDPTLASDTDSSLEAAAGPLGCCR

For the molecule `CCCS(=O)(=O)Nc1ccc(F)c(C(=O)c2c[nH]c3ncc(N4CCOCC4)cc23)c1F` [Example 70, N-(2,4-difluoro-3-(5-morpholino-1H-pyrrolo[2,3-b]pyridine-3-carbonyl)phenyl)propane-1-sulfonamide], the IC50 in experiment [1] was 0.1 to 1 µM. Further, the “Selectivity JNK1, IC50(off-target)/IC50(MKK4)” value (“Selectivity JNK1” below) in experiment [2] is “++ (100 ≥ IC50(off-target)/IC50(MKK4) > 10)”. Also, in experiment [3], the “Selectivity Braf, IC50(off-target)/IC50(MKK4)” value (“Selectivity Braf” below) is given as “◯ (3 ≥ IC50(off-target)/IC50(MKK4))”. For the same molecule, the “Selectivity IVIKK7, IC50(off-target)/IC50(MKK4)” value (“Selectivity IVIKK7” below) in experiment [4] was “+++ (IC50(off-target)/IC50(MKK4) > 100)”.

For `Cc1cnccc1-c1cnc2[nH]cc(C(=O)c3ccc(F)c(NS(=O)(=O)CCC(F)(F)F)c3F)c2c1` [Example 172, N-(2,6-difluoro-3-(5-(3-methylpyridin-4-yl)-1H-pyrrolo[2,3-b]pyridine-3-carbonyl)phenyl)-3,3,3-trifluoropropane-1-sulfonamide], the IC50 in experiment [1] is less than 0.1 µM. Also, the “Selectivity JNK1” value in experiment [2] is on record as “+++ (IC50(off-target)/IC50(MKK4) > 100)”. The “Selectivity Braf” value in experiment [3] is on record as “+++ (IC50(off-target)/IC50(MKK4) > 100)”. Besides, in experiment [4], the “Selectivity IVIKK7” value is given as “+++ (IC50(off-target)/IC50(MKK4) > 100)”.

As to `CCCS(=O)(=O)Nc1c(F)ccc(C(=O)c2c[nH]c3ncc(-c4cccc(C#N)c4)cc23)c1F` [Example 143, N-(3-(5-(3-cyanophenyl)-1-pyrrolo[2,3-b]pyridine-3-carbonyl)-2,6-difluorophenyl)propane-1-sulfonamide], the IC50 in experiment [1] was less than 0.1 µM. Moreover, in experiment [2], the “Selectivity JNK1” value is given as “++ (100 ≥ IC50(off-target)/IC50(MKK4) > 10)”. In addition, the “Selectivity Braf” value in experiment [3] is given as “+++ (IC50(off-target)/IC50(MKK4) > 100)”. Further, in experiment [4], the “Selectivity IVIKK7” value is on record as “+++ (IC50(off-target)/IC50(MKK4) > 100)”.

For the molecule `CCCS(=O)(=O)Nc1c(F)ccc(C(=O)c2c[nH]c3ncc(-c4ccc(F)cc4)cc23)c1F` [Example 216, N-(2,6-difluoro-3-(5-(4-fluorophenyl)-1H-pyrrolo[2,3-b]pyridine-3-carbonyl)phenyl)propane-1-sulfonamide], the IC50 in experiment [1] is less than 0.1 µM. Also, in experiment [2], the “Selectivity JNK1” value is “+++ (IC50(off-target)/IC50(MKK4) > 100)”. In experiment [3], the “Selectivity Braf” value was “+++ (IC50(off-target)/IC50(MKK4) > 100)”. Further, the “Selectivity IVIKK7” value in experiment [4] was “+++ (IC50(off-target)/IC50(MKK4) > 100)”.

For `CCCS(=O)(=O)Nc1c(F)ccc(C(=O)c2c[nH]c3ncc(-c4ccnnc4)cc23)c1F` [Example 144, N-(2,6-difluoro-3-(5-(pyridazin-4-yl)-1H-pyrrolo[2,3-b]pyridine-3-carbonyl)phenyl)propane-1-sulfonamide], the IC50 in experiment [1] was less than 0.1 µM. Besides, in experiment [2], the “Selectivity JNK1” value was “+++ (IC50(off-target)/IC50(MKK4) > 100)”. Moreover, the “Selectivity Braf” value in experiment [3] is recorded as “++ (100 ≥ IC50(off-target)/IC50(MKK4) > 10)”. The “Selectivity IVIKK7” value in experiment [4] is on record as “+++ (IC50(off-target)/IC50(MKK4) > 100)”.

On to `CCCS(=O)(=O)Nc1c(F)ccc(C(=O)c2c[nH]c3ncc(-c4ccc(OCC(O)CO)cc4Cl)cc23)c1F` (stereo not drawn) [Example 153, N-(3-(5-(2-chloro-4-(2,3-dihydroxypropoxy)phenyl)-1H-pyrrolo[2,3-b]pyridine-3-carbonyl)-2,6-difluorophenyl)propane-1-sulfonamide], for which, in experiment [1], the IC50 is less than 0.1 µM. In experiment [2], the “Selectivity JNK1” value was “++ (100 ≥ IC50(off-target)/IC50(MKK4) > 10)”. Further, in experiment [3], the “Selectivity Braf” value is recorded as “+++ (IC50(off-target)/IC50(MKK4) > 100)”. The “Selectivity IVIKK7” value in experiment [4] is listed as “+++ (IC50(off-target)/IC50(MKK4) > 100)”.

Turning to `CCCS(=O)(=O)Nc1ccc(F)c(C(=O)c2c[nH]c3ncc(N4CCNCC4)cc23)c1F` [Example 71, N-(2,4-difluoro-3-(5-(piperazin-1-yl)-1H-pyrrolo[2,3-b]pyridine-3-carbonyl)phenyl)propane-1-sulfonamide], the IC50 in experiment [1] lay within 1 to 10 µM. Further, the “Selectivity JNK1” value in experiment [2] is “◯ (3 ≥ IC50(off-target)/IC50(MKK4))”. Further, in experiment [3], the “Selectivity Braf” value is on record as “◯ (3 ≥ IC50(off-target)/IC50(MKK4))”. Moreover, the “Selectivity IVIKK7” value in experiment [4] is “++ (100 ≥ IC50(off-target)/IC50(MKK4) > 10)”.

With `CCCS(=O)(=O)Nc1c(F)ccc(C(=O)c2c[nH]c3ncc(-c4cccc(C(=O)O)c4)cc23)c1F` [Example 223, 3-(3-(2,4-difluoro-3-(propylsulfonamido)benzoyl)-1H-pyrrolo[2,3-b]pyridin-5-yl)benzoic acid], in experiment [1], the IC50 is less than 0.1 µM. Besides, in experiment [2], the “Selectivity JNK1” value is given as “++ (100 ≥ IC50(off-target)/IC50(MKK4) > 10)”. For the same molecule, in experiment [3], the “Selectivity Braf” value is “+ (10 ≥ IC50(off-target)/IC50(MKK4) > 3)”. The “Selectivity IVIKK7” value in experiment [4] is reported as “+++ (IC50(off-target)/IC50(MKK4) > 100)”.

Regarding `CCCS(=O)(=O)Nc1c(F)ccc(C(=O)c2c[nH]c3ncc(-c4ccc(C)nc4C)cc23)c1F` [Example 165, N-(3-(5-(2,6-dimethylpyridin-3-yl)-1H-pyrrolo[2,3-b]pyridine-3-carbonyl)-2,6-difluorophenyl)propane-1-sulfonamide], the IC50 in experiment [1] was less than 0.1 µM. The “Selectivity JNK1” value in experiment [2] is “+++ (IC50(off-target)/IC50(MKK4) > 100)”. Further, the “Selectivity Braf” value in experiment [3] was “+++ (IC50(off-target)/IC50(MKK4) > 100)”. Moreover, the “Selectivity IVIKK7” value in experiment [4] is recorded as “+++ (IC50(off-target)/IC50(MKK4) > 100)”.

With `CCCS(=O)(=O)Nc1ccc(F)c(C(=O)c2c[nH]c3ncc(-c4cccc(F)c4)cc23)c1F` [Example 115, N-(2,4-difluoro-3-(5-(3-fluorophenyl)-1H-pyrrolo[2,3-b]pyridine-3-carbonyl)phenyl)propane-1-sulfonamide], in experiment [1], the IC50 was 0.1 to 1 µM. Also, the “Selectivity JNK1” value in experiment [2] is “+ (10 ≥ IC50(off-target)/IC50(MKK4) > 3)”. In experiment [3], the “Selectivity Braf” value is on record as “◯ (3 ≥ IC50(off-target)/IC50(MKK4))”. In experiment [4], the “Selectivity IVIKK7” value was “+++ (IC50(off-target)/IC50(MKK4) > 100)”.

In the case of `CCCS(=O)(=O)Nc1ccc(F)c(C(=O)c2c[nH]c3ncc(-c4ccccc4N)cc23)c1F` [Example 122, N-(3-(5-(2-aminophenyl)-1H-pyrrolo[2,3-b]pyridine-3-carbonyl)-2,4-difluorophenyl)propane-1-sulfonamide], the IC50 in experiment [1] fell in the range of 0.1 to 1 µM. Moreover, in experiment [2], the “Selectivity JNK1” value is recorded as “◯ (3 ≥ IC50(off-target)/IC50(MKK4))”. In addition, the “Selectivity Braf” value in experiment [3] was “◯ (3 ≥ IC50(off-target)/IC50(MKK4))”. The “Selectivity IVIKK7” value in experiment [4] was “+++ (IC50(off-target)/IC50(MKK4) > 100)”.

As to `CCCS(=O)(=O)Nc1ccc(F)c(C(=O)c2c[nH]c3ncc(-c4ccc(SCCN)cc4)cc23)c1F` [Example 76, N-(3-(5-(4-((2-aminoethyl)thio)phenyl)-1H-pyrrolo[2,3-b]pyridine-3-carbonyl)-2,4-difluorophenyl)propane-1-sulfonamide], the IC50 in experiment [1] was 0.1 to 1 µM. The “Selectivity JNK1” value in experiment [2] is “+ (10 ≥ IC50(off-target)/IC50(MKK4) > 3)”. In addition, in experiment [3], the “Selectivity Braf” value was “◯ (3 ≥ IC50(off-target)/IC50(MKK4))”. For the same molecule, the “Selectivity IVIKK7” value in experiment [4] is given as “+++ (IC50(off-target)/IC50(MKK4) > 100)”.
